Data on eleven molecules can be found in patent publication US8940720B2, “Macrocycles as factor XIa inhibitors” (Bristol-Myers Squibb Company, priority 2010, dated 2015).

For series [1] the following is noted: from C=CCCC(=O)Nc1cc(NC(=O)OC)ccc1-c1nnc(Cl)cc1C(CC=C)NC(=O)OC(C)(C)C; rcm bond; 12-membered ring; Grubbs II (0.3 eq); DCM; 6.6 mM.

Each structure is given as a SMILES string. Where two headings read alike, the source gives them in different places.

Molecule `COC(=O)Nc1ccc2c(c1)NC(=O)CCC(C)=CC[C@H](NC(=O)OC(C)(C)C)c1nc-2cn1COCC[Si](C)(C)C` yielded a ring closure, yield of all isomers (from C=CC[C@H](NC(=O)OC(C)(C)C)c1nc(-c2ccc(NC(=O)OC)cc2NC(=O)CCC(=C)C)cn1COCC[Si](C)(C)C, rcm bond, Grubbs II, DCE, 105.0 mM, 120.0 °C, 0.33 h) of 34.6%.

`COC(=O)Nc1ccc2c(c1)N[C@@H](C(=O)OC)CC=CC[C@H](NC(=O)OC(C)(C)C)c1nc-2cn1COCC[Si](C)(C)C` gave a ring closure, yield of all isomers (from C=CC[C@H](NC(=O)OC(C)(C)C)c1nc(-c2ccc(NC(=O)OC)cc2N[C@H](CC=C)C(=O)OC)cn1COCC[Si](C)(C)C, rcm bond, Grubbs II, DCE, 40.0 mM, 120.0 °C, 0.33 h) of 30%.

Regarding `COC(=O)c1ccc2c(c1)OCCNC(=O)CC(NC(=O)OC(C)(C)C)c1cc-2nnc1Cl` (stereo not drawn), under “from COC(=O)c1ccc(-c2cc(C(CC(=O)O)NC(=O)OC(C)(C)C)c(Cl)nn2)c(OCCN)c1, amide bond, BOP, DCM, 1.28 mM, 25.0 °C, 2.5 h”, the ring closure, yield of all isomers amounted to 15.3%.

For the setting “from C=CCCC(=O)Nc1ccccc1-c1nnc([C@H](CC=C)NC(=O)OC(C)(C)C)o1, rcm bond, Grubbs II, DCM, 4.8 mM, 75.0 °C, 1.5 h”, `CC(C)(C)OC(=O)N[C@H]1CC=CCCC(=O)Nc2ccccc2C2=NN=C1O2` (mixture of isomers) gave a ring closure, yield of all isomers of 27%.

With `CC(C)(C)OC(=O)N[C@H]1CC=CCCCc2ccccc2-c2cn(COCC[Si](C)(C)C)c1n2`, for the setting “from C=CCCCc1ccccc1-c1cn(COCC[Si](C)(C)C)c([C@H](CC=C)NC(=O)OC(C)(C)C)n1, rcm bond, Grubbs II, DCM, 0.97 mM, 40.0 °C, 1.0 h”, the ring closure, yield of all isomers was 62.9%.

On to `COC(=O)Nc1ccc2c(c1)NC(=O)CCN(C(=O)OC(C)(C)C)C[C@H](NC(=O)OCc1ccccc1)c1nc-2cn1COCC[Si](C)(C)C`, for which, under “from COC(=O)Nc1ccc(-c2cn(COCC[Si](C)(C)C)c([C@H](CN(CCC(=O)O)C(=O)OC(C)(C)C)NC(=O)OCc3ccccc3)n2)c(N)c1, amide bond, BOP, DCM, 0.93 mM, 25.0 °C, 5.0 h”, the ring closure, yield of all isomers came out at 87%.

Under “from C=CCC(=O)Nc1cc(NC(=O)OC)ccc1-c1cc(C(CC=C)NC(=O)OC(C)(C)C)nc(C)n1, rcm bond, Grubbs II, DCM, 0.5 mM, 40.0 °C, 4.0 h”, `COC(=O)Nc1ccc2c(c1)NC(=O)C/C=C/CC(NC(=O)OC(C)(C)C)c1cc-2nc(C)n1` (stereo not drawn) displayed a ring closure, yield of all isomers of 22%.

For the molecule `COC(=O)Nc1ccc2c(c1)NC(=O)CCC=CC[C@H](NC(=O)OC(C)(C)C)c1cc-2ccn1`, the ring closure, yield of all isomers (from C=CCCC(=O)Nc1cc(NC(=O)OC)ccc1-c1ccnc([C@H](CC=C)NC(=O)OC(C)(C)C)c1, rcm bond, Grubbs II, DCM, 0.99 mM, 40.0 °C, 1.5 h) was 75%.

`COC(=O)Nc1ccc2c(c1)NC(=O)CC/C=C/CC(NC(=O)OC(C)(C)C)c1cc(Cl)nnc1-2` (stereo not drawn): the ring closure, yield of all isomers (from C=CCCC(=O)Nc1cc(NC(=O)OC)ccc1-c1nnc(Cl)cc1C(CC=C)NC(=O)OC(C)(C)C, rcm bond, Grubbs II, DCM, 6.6 mM, 40.0 °C, 1.0 h) amounted to 56%. This molecule showed a ring closure, isolated yield in series [1] of 56%.

For `COC(=O)Nc1ccc2c(c1)CCCN(C)C(=O)C[C@H](NC(=O)OC(C)(C)C)c1nc-2cn1COCC[Si](C)(C)C`, where the note is “from CNCCCc1cc(NC(=O)OC)ccc1-c1cn(COCC[Si](C)(C)C)c([C@H](CC(=O)O)NC(=O)OC(C)(C)C)n1, amide bond, BOP, DCM, 8.64 mM, 25.0 °C, 2.0 h”, the ring closure, yield of all isomers was determined as 39.4%.

The molecule `CC(C)(C)OC(=O)N[C@H]1CC=CCCOc2ccccc2-c2cn(COCC[Si](C)(C)C)c1n2` registered a ring closure, yield of all isomers (from C=CCCOc1ccccc1-c1cn(COCC[Si](C)(C)C)c([C@H](CC=C)NC(=O)OC(C)(C)C)n1, rcm bond, Grubbs II, DCM, 1.02 mM, 40.0 °C, 1.0 h) of 29%.
